The results in this text go back to patent US20210300940A1 (Merck Patent GmbH, priority 2018, published 2021).

Structures are written as SMILES. pIC50: −log10 of the molar value. Where only a bound is given, the exact number is not on record here.

The target in one assay is T1, TLR7 (Homo sapiens, UniProt Q9NYK1).
T1 construct: expressed in transfected cells; host or cells: HEK/293 cells carrying TLR7 and an NF-kB luciferase reporter
T1 sequence (Q9NYK1 27-1049): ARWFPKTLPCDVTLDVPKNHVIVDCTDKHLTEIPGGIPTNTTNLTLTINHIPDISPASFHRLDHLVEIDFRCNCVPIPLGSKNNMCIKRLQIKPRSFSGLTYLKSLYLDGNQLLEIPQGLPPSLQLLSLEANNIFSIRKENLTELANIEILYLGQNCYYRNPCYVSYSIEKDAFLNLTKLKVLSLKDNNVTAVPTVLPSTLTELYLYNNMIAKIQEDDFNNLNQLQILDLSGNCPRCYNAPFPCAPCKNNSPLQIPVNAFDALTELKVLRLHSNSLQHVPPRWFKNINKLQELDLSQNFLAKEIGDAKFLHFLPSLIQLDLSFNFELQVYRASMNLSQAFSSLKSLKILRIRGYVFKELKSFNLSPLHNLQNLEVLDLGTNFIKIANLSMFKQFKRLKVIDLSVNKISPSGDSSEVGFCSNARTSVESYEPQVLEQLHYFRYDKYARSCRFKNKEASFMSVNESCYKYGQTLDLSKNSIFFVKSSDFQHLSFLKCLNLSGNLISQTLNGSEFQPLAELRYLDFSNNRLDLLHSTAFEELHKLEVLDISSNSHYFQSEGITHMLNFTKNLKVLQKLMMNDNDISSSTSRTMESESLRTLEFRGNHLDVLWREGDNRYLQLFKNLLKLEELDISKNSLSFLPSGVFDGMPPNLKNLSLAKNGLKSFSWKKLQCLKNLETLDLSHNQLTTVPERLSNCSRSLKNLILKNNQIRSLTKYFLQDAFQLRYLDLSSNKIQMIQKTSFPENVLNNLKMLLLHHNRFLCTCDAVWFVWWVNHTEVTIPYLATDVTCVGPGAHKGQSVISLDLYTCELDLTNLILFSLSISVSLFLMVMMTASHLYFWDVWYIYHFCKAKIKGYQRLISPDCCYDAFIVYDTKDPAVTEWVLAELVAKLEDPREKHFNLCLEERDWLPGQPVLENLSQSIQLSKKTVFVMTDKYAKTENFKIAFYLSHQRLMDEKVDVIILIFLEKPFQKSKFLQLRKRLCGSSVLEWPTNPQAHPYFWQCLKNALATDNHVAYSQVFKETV
Kind of assay: HEK/293 TLR7 Cell Assay. Format: cell-based. To be noted: TLR7/NFKb HEK cells, R848 agonist 10 uM final concentration, Steady-Glo readout; read-out: TLR7 potency. In short, it runs like this:
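Compounds added to HEK cells expressing TLR7 with an NFκB reporter 30 min ahead of 10 uM R848 challenge; luciferase signal (Steady-Glo) measured after 5 h, cells having been seeded 24 h earlier at 5000 per well.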

For another assay, the target named is T2, TLR8 (Homo sapiens, UniProt Q9NR97).
T2 construct: expressed in transfected cells; host or cells: HEK/293 reporter cells (NF-kB luciferase)
T2 sequence (Q9NR97 27-1041): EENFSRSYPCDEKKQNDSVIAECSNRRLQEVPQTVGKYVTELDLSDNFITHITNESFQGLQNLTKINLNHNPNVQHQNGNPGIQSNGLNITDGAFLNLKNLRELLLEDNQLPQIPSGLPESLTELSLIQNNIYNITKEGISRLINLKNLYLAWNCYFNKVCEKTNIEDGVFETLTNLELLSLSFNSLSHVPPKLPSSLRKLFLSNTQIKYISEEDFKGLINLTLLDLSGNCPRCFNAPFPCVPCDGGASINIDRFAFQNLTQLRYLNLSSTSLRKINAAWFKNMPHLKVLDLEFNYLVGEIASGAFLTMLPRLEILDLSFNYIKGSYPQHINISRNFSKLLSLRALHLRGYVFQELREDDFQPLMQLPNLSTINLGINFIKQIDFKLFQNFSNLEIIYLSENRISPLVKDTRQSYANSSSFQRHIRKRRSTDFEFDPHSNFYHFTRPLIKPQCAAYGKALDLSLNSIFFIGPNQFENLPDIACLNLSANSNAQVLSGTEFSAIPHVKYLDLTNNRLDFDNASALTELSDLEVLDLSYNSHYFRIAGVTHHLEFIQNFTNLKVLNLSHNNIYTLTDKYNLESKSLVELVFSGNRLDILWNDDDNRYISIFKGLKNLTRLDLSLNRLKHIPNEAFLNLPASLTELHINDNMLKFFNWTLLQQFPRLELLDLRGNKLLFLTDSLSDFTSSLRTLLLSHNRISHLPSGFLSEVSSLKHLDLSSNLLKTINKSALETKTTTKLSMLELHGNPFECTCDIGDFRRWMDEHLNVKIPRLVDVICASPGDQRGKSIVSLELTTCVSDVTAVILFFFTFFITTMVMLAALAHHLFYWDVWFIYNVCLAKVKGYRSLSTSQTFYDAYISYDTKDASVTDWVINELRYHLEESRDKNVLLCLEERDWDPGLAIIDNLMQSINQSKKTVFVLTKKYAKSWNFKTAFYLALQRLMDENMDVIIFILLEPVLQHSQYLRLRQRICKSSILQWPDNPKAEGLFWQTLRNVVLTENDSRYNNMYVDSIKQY
Kind of assay: HEK/293 TLR8 Cell Assay. Particulars: HEK cells, R848 agonist 30 uM final concentration, Steady-Glo readout; read-out: TLR8 potency. It is filed as cell-based.

Turning to `C[C@H]1C[C@@H](NC(=O)[C@@H](N)CC(N)=O)CN(c2ccc(C(F)(F)F)c3nccnc23)C1` [Example 127, (2S)-2-amino-N-[(3R,5S)-5-methyl-1-[8-(trifluoromethyl)quinoxalin-5-yl]piperidin-3-yl]butanediamide], the pIC50 at TLR7 was 6.82 to 7.12; at TLR8, above 7.12.

In the case of `C[C@H]1C[C@@H](NC(=O)C2CCN(C(=O)[C@@H](N)[C@@H](C)O)CC2)CN(c2ccc(C(F)(F)F)c3ncccc23)C1` [Example 182, 1-((2S,3R)-2-Amino-3-hydroxy-butyryl)-piperidine-4-carboxylic acid [(3R,5S)-5-methyl-1-(8-trifluoromethyl-quinolin-5-yl)-piperidin-3-yl]-amide], the pIC50 at TLR7 and at TLR8 was above 7.12 throughout.

`C[C@@H]1CN(c2ccc(C#N)c3nccnc23)C[C@H](C(=O)NC[C@@H](O)CN(C)C)O1` (single isomer, unassigned) [Example 262]: the pIC50 at TLR7 and at TLR8 was above 7.12 each time.

`C[C@@H]1CN(c2cnc(C#N)c3ncccc23)C[C@H](CN2CCC(N3CCOCC3)CC2)O1` [Example 367, 5-[(2R,6S)-2-Methyl-6-(4-morpholin-4-yl-piperidin-1-ylmethyl)-morpholin-4-yl]-[1,7]naphthyridine-8-carbonitrile]: the pIC50 was 6.82 to 7.12 at TLR7 and above 7.12 on TLR8.

For `C[C@@H]1CN(c2ccc(C(F)(F)F)c3ncccc23)C[C@H](CN2CCN(C)CC2)O1` [Example 330, 5-[(2R,6S)-2-Methyl-6-(4-methyl-piperazin-1-ylmethyl)-morpholin-4-yl]-8-trifluoromethyl-quinoline], the pIC50 on TLR7 and at TLR8 was above 7.12 throughout.

For `C[C@H]1C[C@@H](NC(=O)CCS(=O)(=O)N(C)C)CN(c2ccc(C#N)c3nccnc23)C1` [Example 195, N-[(3R,5S)-1-(8-Cyano-quinoxalin-5-yl)-5-methyl-piperidin-3-yl]-3-dimethylsulfamoyl-propionamide], the pIC50 on TLR7 and on TLR8 was 6.82 to 7.12 each time.

With `CN1CC[C@@](F)(CNC(=O)[C@@H]2CN(c3ccc(C#N)c4nccnc34)C[C@H](C(F)(F)F)O2)C1` (single isomer, unassigned) [Example 356], the pIC50 on TLR7 and at TLR8 was above 7.12 in each case.

`C[C@@H]1CN(c2ccc(C#N)c3nccnc23)C[C@H](C(=O)NCC2(F)CCNCC2)O1` [Example 290, (2R,6R)-4-(8-Cyano-quinoxalin-5-yl)-6-methyl-morpholine-2-carboxylic acid (4-fluoro-piperidin-4-ylmethyl)-amide]: the pIC50 on TLR7 and on TLR8 was above 7.12 each time.

In the case of `C[C@@H]1CN(c2ccc(C#N)c3nccnc23)C[C@H](C(=O)NC2CCN(CC3CC3)C2)O1` (stereo partly drawn) [Example 241, (2R,6R)-4-(8-Cyano-quinoxalin-5-yl)-6-methyl-morpholine-2-carboxylic acid (1-cyclopropylmethyl-pyrrolidin-3-yl)-amide], the pIC50 on TLR7 and at TLR8 was above 7.12 in each case.

Regarding `C[C@@H]1CN(c2ccc(C#N)c3nccnc23)C[C@H](C(=O)NCCCS(C)(=O)=O)O1` [Example 260, (2R,6R)-4-(8-cyanoquinoxalin-5-yl)-N-(3-methanesulfonylpropyl)-6-methylmorpholine-2-carboxamide], the pIC50 at TLR7 was 6.82 to 7.12; on TLR8 it was below 6.82.

Turning to `C[C@@H]1CN(c2ccc(C#N)c3ncncc23)C[C@H](C(=O)NC2CCN(C)C3(CCC3)C2)O1` (stereo partly drawn) [Example 347, (2R,6R)-4-(8-Cyano-quinazolin-5-yl)-6-methyl-morpholine-2-carboxylic acid (5-methyl-5-aza-spiro[3.5]non-8-yl)-amide], the pIC50 at TLR7 and on TLR8 was above 7.12 each time.

In the case of `C[C@H]1C[C@@H](NC(=O)CC2CN(C)C2)CN(c2cc(F)c(C#N)c3ncccc23)C1` [Example 59, N-[(3R,5S)-1-(8-Cyano-7-fluoro-quinolin-5-yl)-5-methyl-piperidin-3-yl]-2-(1-methyl-azetidin-3-yl)-acetamide], the pIC50 on TLR7 was 6.82 to 7.12; on TLR8, below 6.82.
